Reference: patent US8962843B2, “1,3,4-oxadiazole and 1,3,4-thiadiazole beta-lactamase inhibitors” (priority 2012, dated 2015)
Where a name gives a salt, the structure may show the parent alone.

Legend:
[1] = tested on: bacterial strains that express the class D cephalosporinase OXA-15; experiment: Standard BLI potentiation MIC / synergy MIC assays, strains expressing OXA-15; assay type: cell-based, E. coli; conditions: in combination with a β-lactam; comparator Avibactam (CCC)
Description: (§1) The experimental protocol was performed according to Clinical and Laboratory Standards Institute (CLSI) guidelines with modifications as described below (CLSI guidelines can be derived from the CLSI document M07-A9 published in January 2012: “Methods for Dilution Antimicrobial Susceptibility Tests for Bacteria That Grow Aerobically; Approved Standard-Ninth Edition”).
(§2) To prepare for MIC testing, frozen glycerol stocks of clinical isolates (Klebsiella pneumoniae, Eschericia coli, Enterobacter spp, Citrobacter spp, or Pseudomonas aeruginosa) were used to streak for isolated colonies on rich, non-selective, tryptic soy agar containing 5% sheep's blood (TSAB). Frozen glycerol stocks of laboratory engineered, isogenic E. coli strains, which contain cloned β-lactamase expressing plasmids were used to streak for isolated colonies on rich, selective LB agar supplemented with 25 μg/mL tetracycline to maintain the plasmid. All strains were incubated at 37° C. for 18-24 hrs.
(§3) On the day of testing, primary cultures were started by scraping off 5-10 colonies from the TSAB plates containing clinical strains or the tetracycline supplemented LB plates containing engineered strains. The clinical strain material was suspended in ˜5 mL of cation adjusted Mueller Hinton Broth (CAMHB) in 14 mL culture tubes. The engineered strain material was suspended in CAMHB (supplemented with 25 μg/mL tetracycline) in 14 mL culture tubes. All strains were incubated at 37° C. with aeration (200 rpm) for ˜2 hrs until the optical density at 600 nm (OD600) was >0.1.
(§4) The two compound components of the assay were each diluted in CAMHB and added to the 96-well broth microdilution assay plates. 50 μL of the β-lactam was added to each well of the assay plate in 2-fold dilutions with final concentrations ranging from 128 to 0.13 μg/mL. 25 μL of the BLI compound was added to all wells in the broth microdilution plates at a final concentration of 4 μg/mL. Inoculum cultures were prepared by standardizing the primary cultures to OD600=0.1 and then adding 20 μL of the adjusted primary culture per 1 mL CAMHB for clinical strains or CAMHB (supplemented with tetracycline at 100 μg/mL) for engineered strains, so that the final inoculum density was ˜10^5 colony forming units per milliliter. Diluted inoculum cultures were used to inoculate 25 μl, per well in 96-well broth microdilution assay plates. The final volume of each well was 100 μL and contained a β-lactam at different concentrations, a BLlcompound at 4 μg/mL concentration, the bacterial culture at an OD600 of approximately 0.001 and when necessary tetracycline at 25 μg/mL.
(§5) Plates were incubated for 18-20 hours at 37° C. with aeration (200 rpm). Following incubation, growth was confirmed visually placing plates over a viewing apparatus (stand with a mirror underneath) and then OD600 was measured using a SpectraMax 340PC384 plate reader (Molecular Devices, Sunnyvale, Calif.). Growth was defined as turbidity that could be detected with the naked eye or achieving minimum OD600 of 0.1. MIC values were defined as the lowest concentration producing no visible turbidity.
(§6) The synergy MIC (sMIC) assay determines the concentration of the BLI required to potentiate the activity of a fixed concentration of a β-lactam antibiotic against β-lactamase producing bacterial strains. The experimental protocol was performed according to Clinical and Laboratory Standards Institute (CLSI) guidelines with modifications as described below (CLSI guidelines can be derived from the CLSI document M07-A9 published in January 2012: “Methods for Dilution Antimicrobial Susceptibility Tests for Bacteria That Grow Aerobically; Approved Standard-Ninth Edition”). […]

[2] = tested on: bacterial strains that express KPC β-lactamases; experiment: Standard BLI potentiation MIC / synergy MIC assays, strains expressing KPC β-lactamases; assay type: cell-based; conditions: in combination with a β-lactam; comparator Avibactam
Description: as §1, §2, §3, §4, §5, §6

Compound | activity against bacterial strains that express the class D cephalosporinase OXA-15, compared with Avibactam [1] | activity and/or spectrum of activity against bacterial strains that express KPC β-lactamases, compared with Avibactam [2]
NC1(Cc2nnc([C@@H]3CC[C@@H]4CN3C(=O)N4OS(=O)(=O)O)o2)CC1 [Compound 724, (2S,5R)-2-(5-((1-aminocyclopropyl)methyl)-1,3,4-oxadiazol-2-yl)-7-oxo-1,6-diazabicyclo[3.2.1]octan-6-yl hydrogen sulfate] | more active than Avibactam | more active than Avibactam for at least one, bacterial strain that expresses KPC β-lactamase and/or show a better spectrum of activity
O=C1N2C[C@@H](CC[C@H]2c2nnc(CNC3CNC3)o2)N1OS(=O)(=O)O [Compound 726, (2S,5R)-2-(5-((azetidin-3-ylamino)methyl)-1,3,4-oxadiazol-2-yl)-7-oxo-1,6-diazabicyclo[3.2.1]octan-6-yl hydrogen sulfate] | more active than Avibactam | more active than Avibactam for at least one, bacterial strain that expresses KPC β-lactamase and/or show a better spectrum of activity
N[C@H]1C[C@H](c2nnc([C@@H]3CC[C@@H]4CN3C(=O)N4OS(=O)(=O)O)o2)C1 [Compound 727, (2S,5R)-2-(5-((1r,3S)-3-aminocyclobutyl)-1,3,4-oxadiazol-2-yl)-7-oxo-1,6-diazabicyclo[3.2.1]octan-6-yl hydrogen sulfate] | more active than Avibactam | more active than Avibactam for at least one, bacterial strain that expresses KPC β-lactamase and/or show a better spectrum of activity
N[C@H]1C[C@@H](Cc2nnc([C@@H]3CC[C@@H]4CN3C(=O)N4OS(=O)(=O)O)o2)C1 [Compound 728, (2S,5R)-2-(5-(((1s,3R)-3-aminocyclobutyl)methyl)-1,3,4-oxadiazol-2-yl)-7-oxo-1,6-diazabicyclo[3.2.1]octan-6-yl hydrogen sulfate] | more active than Avibactam | more active than Avibactam for at least one, bacterial strain that expresses KPC β-lactamase and/or show a better spectrum of activity
N[C@@H]1CC[C@H](c2nnc([C@@H]3CC[C@@H]4CN3C(=O)N4OS(=O)(=O)O)o2)C1 [Compound 729, (2S,5R)-2-(5-((1S,3R)-3-aminocyclopentyl)-1,3,4-oxadiazol-2-yl)-7-oxo-1,6-diazabicyclo[3.2.1]octan-6-yl hydrogen sulfate] | more active than Avibactam | more active than Avibactam for at least one, bacterial strain that expresses KPC β-lactamase and/or show a better spectrum of activity
N=C(N)NCC(O)Cc1nnc([C@@H]2CC[C@@H]3CN2C(=O)N3OS(=O)(=O)O)o1 (stereo partly drawn) [Compound 730, (2S,5R)-2-(5-(3-guanidino-2-hydroxypropyl)-1,3,4-oxadiazol-2-yl)-7-oxo-1,6-diazabicyclo[3.2.1]octan-6-yl hydrogen sulfate] | more active than Avibactam | more active than Avibactam for at least one, bacterial strain that expresses KPC β-lactamase and/or show a better spectrum of activity
N=C(N)NC[C@@H](O)c1nnc([C@@H]2CC[C@@H]3CN2C(=O)N3OS(=O)(=O)O)o1 [Compound 731, (2S,5R)-2-(5-((R)-2-guanidino-1-hydroxyethyl)-1,3,4-oxadiazol-2-yl)-7-oxo-1,6-diazabicyclo[3.2.1]octan-6-yl hydrogen sulfate] | more active than Avibactam | more active than Avibactam for at least one, bacterial strain that expresses KPC β-lactamase and/or show a better spectrum of activity
N=C(N)NC[C@H](O)c1nnc([C@@H]2CC[C@@H]3CN2C(=O)N3OS(=O)(=O)O)o1 [Compound 732, (2S,5R)-2-(5-((S)-2-guanidino-1-hydroxyethyl)-1,3,4-oxadiazol-2-yl)-7-oxo-1,6-diazabicyclo[3.2.1]octan-6-yl hydrogen sulfate] | more active than Avibactam | more active than Avibactam for at least one, bacterial strain that expresses KPC β-lactamase and/or show a better spectrum of activity
CNCCCc1nnc([C@@H]2CC[C@@H]3CN2C(=O)N3OS(=O)(=O)O)o1 [Compound 734, (2S,5R)-2-(5-β-(methylamino)propyl)-1,3,4-oxadiazol-2-yl)-7-oxo-1,6-diazabicyclo[3.2.1]octan-6-yl hydrogen sulfate] | more active than Avibactam | more active than Avibactam for at least one, bacterial strain that expresses KPC β-lactamase and/or show a better spectrum of activity
NCCCCc1nnc([C@@H]2CC[C@@H]3CN2C(=O)N3OS(=O)(=O)O)o1 [Compound 735, (2S,5R)-2-(5-(4-aminobutyl)-1,3,4-oxadiazol-2-yl)-7-oxo-1,6-diazabicyclo[3.2.1]octan-6-yl hydrogen sulfate] | more active than Avibactam | more active than Avibactam for at least one, bacterial strain that expresses KPC β-lactamase and/or show a better spectrum of activity
O=C1N2C[C@@H](CC[C@H]2c2nnc(CCNCCO)o2)N1OS(=O)(=O)O [Compound 736, (2S,5R)-2-(5-(2-((2-hydroxyethyl)amino)ethyl)-1,3,4-oxadiazol-2-yl)-7-oxo-1,6-diazabicyclo[3.2.1]octan-6-yl hydrogen sulfate] | more active than Avibactam | more active than Avibactam for at least one, bacterial strain that expresses KPC β-lactamase and/or show a better spectrum of activity
CC(C)(N)Cc1nnc([C@@H]2CC[C@@H]3CN2C(=O)N3OS(=O)(=O)O)o1 [Compound 737, (2S,5R)-2-(5-(2-amino-2-methylpropyl)-1,3,4-oxadiazol-2-yl)-7-oxo-1,6-diazabicyclo[3.2.1]octan-6-yl hydrogen sulfate] | more active than Avibactam | more active than Avibactam for at least one, bacterial strain that expresses KPC β-lactamase and/or show a better spectrum of activity
N=C(N)Nc1nnc([C@@H]2CC[C@@H]3CN2C(=O)N3OS(=O)(=O)O)o1 [Compound 738, (2S,5R)-2-(5-guanidino-1,3,4-oxadiazol-2-yl)-7-oxo-1,6-diazabicyclo[3.2.1]octan-6-yl hydrogen sulfate] | more active than Avibactam | more active than Avibactam for at least one, bacterial strain that expresses KPC β-lactamase and/or show a better spectrum of activity
